Data as given in patent US11787850B2, “Peptidic TGF-beta antagonists” (priority 2015, dated 2023).

Key:
[1] = tested on: TGF-β-induced migration of squamous cell carcinoma (A431) cells; experiment: Scratch (wound closure) migration assay, A431 cells; assay type: cell-based; conditions: 100 pM TGF-β1, 24 hours, P16 concentrations as indicated (FIG. 27)
Protocol: FIG. 10A and FIG. 10B illustrate that peptides B, E and X-1 inhibit TGF-β-induced cellular migration of A431 cells in vitro. Results are shown prior to treatment (0 hr, top panels) and after treatment (24 hr, bottom panels) for each of the peptides used. (See FIG. 2 and Table 1 for the amino acid sequence identity of the peptides).
A431 cells were grown to 80-90% confluence and serum-starved overnight. The next day, cells were scratched with a plastic pipette tip (time 0 hour) and then left untreated or treated for 24 hours with 100 pM TGF-β1 alone or in the presence of P16 as indicated. (FIG. 27A) Digital images were captured at 0 h and 24 h using an EVOS XL Core microscope. (FIG. 27B) Micrographs were subsequently quantitated to determine the percentage of the wound area that had closed following 24 hours in the presence or absence of P16, as indicated.
Cells were scratched with a pipette tip and treated without or with 100 pM TGF-b1 alone or in the presence of 10 nM Peptide A or Peptide A1 (C31S mutant). Pictures were taken at 0 and 24 hrs. Peptide A but not Peptide A1 inhibits TGF-b-induced migration in A431 cells. Peptide A contains monomeric and dimeric forms whereas Peptide A1 contains a C31S mutation to prevent intermolecular disulfide bond formation so that it forms monomers only.
Squamous cell carcinoma (A431) or breast cancer (MDA-MB-231) cells were grown to 80-90% confluence and serum-starved overnight. The next day, cells were scratched with a plastic pipette tip (time 0 hour) and then left untreated or treated for 24 hours with 100 pM TGF-β1 alone or in the presence of 10 nM peptide B (100 aa), E (67 aa), or X1 (P28, 28 aa). Digital images were captured at 0 h and 24 h (20× magnification) using an EVOS XL Core microscope.

[2] = tested on: TGF-β-induced epithelial-mesenchymal transition (EMT) response in squamous cell carcinoma (A431) cells; experiment: Immunoblot of EMT markers in A431 cells; assay type: cell-based
Protocol: (FIG. 26A) Immunoblot analysis was carried out using cell lysates of A431 cells following incubation with TGF-β, P16, or scrambled control (P16.2) as indicated to determine expression of proteins involved in the EMT response. (FIG. 26B) Densitometry analysis was subsequently performed using the developed immunoblot to illustrate the relative expression of each protein as a function as P16 concentration as indicated.
A431 cancer cells treated with 10 nM of P16.2 (negative peptide control), P12, P16 or PA in the absence or presence of 100 pM TGF-b, followed by 24 hrs of incubation. Cells lysates were analyzed by Western blot for the expression of Fibronectin (mesenchymal marker), Snail and Twist (EMT markers). Actin expression was used as loading control.

[3] = tested on: TGF-β-induced fibrotic response in human fibroblasts; experiment: Immunoblot of fibrotic markers in human primary fibroblasts; assay type: cell-based; conditions: 100 pM TGF-β, different dosage of P16, 24 hrs (FIG. 34)
Protocol: Human primary fibroblasts were starved for 36 hours, then treated with 20 pM TGF-β and 10 nM CD109-based peptide as indicated for 24 hours. (FIG. 29A) Cell lysates were separated by gel electrophoresis, transferred to a membrane, and immunoblotted with antibodies against fibronectin, PAI-1, CTGF, and α-tubulin. (FIG. 29B) The data shown represent the mean expression levels of 3 different biological replicates calculated by densitometry of fibronectin, PAI-1, and CTGF intensity levels normalized to α-tubulin. Error bars represent the standard deviation of the replicate experiments. A single asterisk designates a t test P value of less than 0.05, and a double asterisk indicates a P value of less than 0.01.
Human fibroblasts were starved for 36 hours, then treated with 100 pM TGF-β and different dosage of P16 for 24 hrs. (FIG. 34A) Cell lysates were separated by gel electrophoresis, transferred to a membrane, and immunoblotted with antibodies against each of the indicated proteins. (FIG. 34B) Densitometry analysis was subsequently carried out to quantitate the expression of each of the indicated proteins as a function of P16 concentration.

[4] = tested on: bleomycin-induced skin fibrosis; experiment: Bleomycin-induced skin fibrosis (scleroderma) mouse model; assay type: in vivo
Protocol: Wild type mice were treated with bleomycin ([…]) to induce skin fibrosis or PBS (negative control). Mice were treated with CD109 ([…]), P16 ([…]), or PBS by 100 μL subcutaneous injection every other day for 28 days for a total of 14 injections.
(§1) Mice were injected intradermally with bleomycin (5 mg) in […] PBS or PBS alone every second day for 28 days. Mice were co-injected without or with 1.0 mg recombinant CD109 protein or P16 peptide every second day for 28 days (14 mg total). Skin tissue was harvested and immunohistochemical analysis was performed for the detection of Fibronectin, α-sma, CTGF and Type-1 Collagen. Representative images of sections of skin derived from CD109 and p16 treated mice on day 28 after initial bleomycin or PBS treatment are shown. A total of 4-6 different mice per treatment group were analyzed. Original magnification x 20.
as §1, with “phospho-Smad2, phospho-Smad1” for “Fibronectin, α-sma, CTGF”, “TGF-β levels.” for “Type-1 Collagen.”

[5] = tested on: TGF-β1-induced Smad3-driven (CAGA12-lux) transcriptional activity; experiment: Luciferase reporter assay in HEK293-(CAGA)12 cells; assay type: cell-based
[6] = co-injected with bleomycin every second day for 28 days (FIG. 37)

## ETWIWLDTNMGSRIYQ [Peptide P16]
[1]
  inhibition of A431 cell migration, dose-dependent: inhibit
[2]; 10 nM peptide, 100 pM TGF-b, 24 hrs (FIG. 33)
  inhibition of TGF-b induced EMT response (Fibronectin, Snail, Twist): inhibit
[2]; immunoblot and densitometry, P16 concentrations as indicated (FIG. 26)
  inhibition of TGF-β-induced EMT response in A431 cells, dose-dependent: inhibit
[3]
  TGF-β-induced expression of fibronectin, collagen (COL1A1), PAI-1, α-SMA and CTGF: attenuate
[4]; [6]
  SMAD1 phosphorylation in skin (immunohistochemistry): enhancing
  SMAD2 phosphorylation in skin (immunohistochemistry): reduces
  TGF-β expression in skin (immunohistochemistry): reduces
[4]; co-injected with bleomycin every second day for 28 days, skin on day 28 (FIG. 36)
  extracellular matrix production (Fibronectin, α-sma, CTGF, Type-1 Collagen, immunohistochemistry): reduces
[4]; subcutaneous injection every other day for 28 days (FIG. 35A)
  collagen content as assessed by trichrome staining: reducing
[4]; subcutaneous injection every other day for 28 days (FIG. 35B)
  dermal collagen content, ratio of trichrome stain to total skin area: reducing
[4]; trichrome staining, subcutaneous injection every other day for 28 days (FIG. 35A)
  dermal thickness: reducing
[5]; 10 nM or 5 nM peptide, 100 pM TGF-β1, 18 hours (FIG. 5)
  inhibition of TGF-β1-induced CAGA12-lux activity: inhibited
[5]; 10 nM peptide, 100 pM TGF-β1, 18 hours (FIG. 6)
  inhibition of TGF-β1-induced CAGA12-lux activity: inhibited
